Residues, ends and D or L forms follow the SMILES beside them.
Columns and labels:
C. albicans (ATCC 10231) = test: In vitro antifungal CFU assay; format: cell-based, Candida albicans; conditions: pH 5.4; for mean CFU number ± S.D.: per 0.1 mL
Protocol: (§1) All microbes were grown at 37 °C in Tryptic Soy Broth (TSB; Biolife, Milan, Italy) or Tryptic Soy Agar plates (TSA, Biolife, Milan, Italy). Peptides were tested at a final concentration C = 0.128, 0.064, 0.032 mg/mL, in the presence or absence of ZnCl2 or CuCl2, at a M:L molar ratio 0.9:1. Briefly, all the microbes were expanded in TSB at 37 °C under agitation for 12 h and then sub-cultured by 1:10 dilution in TSB under the same conditions until reaching OD600nm = 0.3–0.4, as measured by spectrophotometric reading using a GENESYS 10S UV–Vis spectrophotometer (Thermo Scientific, Milan, Italy), corresponding to 0.9–1.2 × 10^7 colony forming units (CFU) per mL, 1.5–2 × 10^8 CFU/mL and 2.4–3.2 × 10^8 CFU/mL, for C. albicans, S. aureus and E. coli respectively. The cultures were then centrifuged at 4500 rpm for 10 min in a SL 8 centrifuge (TX-150 Rotor) (Thermo Scientific, Milan, Italy), and the cellular pellets were washed with PBS pH 5.4. Pelletized cultures were then suspended in 10 mL of PBS pH 5.4, then the suspensions were diluted to a final concentration of 10^4 CFU/mL. Aliquots of 100 µl (corresponding to 10^3 CFU) were seeded in each well of a 96-wells plate. 3 µl of TSB at pH 5.4 were added to each well to obtain a final 1.5% TSB concentration in the culture medium. Peptides were serially diluted in PBS pH 5.4 to C = 0.257, 0.128, and 0.064 mg/mL. ZnCl2 and CuCl2 solutions were added where requested to obtain a M:L ratio 0.9:1. 100 µl of the prepared peptides ± ZnCl2/CuCl2 solutions were then added to each well, obtaining the final 0.128, 0.064 and 0.032 mg/mL peptide concentrations in a total 0.2 mL volume. PBS alone and PBS + ZnCl2/CuCl2 solutions were included as controls. The plates were incubated at 37 °C on a platform rocker with slow stirring for 3 and 24 h. At the end of the incubation times, 100 µl aliquots were taken from each sample and diluted in PBS pH 5.4 to be seeded on TSA plates. Specifically, aliquots were diluted 1:10 at 3 h, and 1:200, 1:100,000 and 1:10 at 24 h, for C. albicans, E. coli, and S. aureus respectively. After incubation for 24 h at 37 °C, grown CFUs were enumerated. Samples were assayed in triplicate in two independent experiments. Student’s t-test was used for the evaluation of significance in biological tests; a p value ≤ 0.05 was considered significant.

E. coli (ATCC 25922) = test: In vitro anti-E. coli CFU assay; format: cell-based, Escherichia coli; conditions: pH 5.4; for mean CFU number ± S.D.: per 0.1 mL
Protocol: as §1

[1] = peptide 0.032 mg/mL + CuCl2 (0.9:1), 3 h
[2] = peptide 0.032 mg/mL + CuCl2 (0.9:1), 24 h
[3] = peptide 0.032 mg/mL + ZnCl2 (0.9:1), 3 h
[4] = peptide 0.032 mg/mL + ZnCl2 (0.9:1), 24 h
[5] = peptide 0.064 mg/mL + CuCl2 (0.9:1), 3 h
[6] = peptide 0.064 mg/mL + CuCl2 (0.9:1), 24 h
[7] = peptide 0.064 mg/mL + ZnCl2 (0.9:1), 3 h
[8] = peptide 0.064 mg/mL + ZnCl2 (0.9:1), 24 h
[9] = peptide 0.128 mg/mL + CuCl2 (0.9:1), 3 h
[10] = peptide 0.128 mg/mL + CuCl2 (0.9:1), 24 h
[11] = peptide 0.128 mg/mL + ZnCl2 (0.9:1), 3 h
[12] = peptide 0.128 mg/mL + ZnCl2 (0.9:1), 24 h
[13] = peptide alone 0.032 mg/mL, 24 h
[14] = peptide alone 0.064 mg/mL, 24 h
[15] = peptide alone 0.128 mg/mL, 24 h

CC[C@H](C)[C@H](NC(=O)[C@H](C)NC(=O)[C@@H](NC(C)=O)C(C)C)C(=O)N[C@@H](C)C(=O)N[C@@H](CC(C)C)C(=O)N[C@@H](CCCCN)C(=O)N[C@@H](C)C(=O)N[C@@H](C)C(=O)N[C@@H](Cc1c[nH]cn1)C(=O)N[C@@H](Cc1ccc(O)cc1)C(=O)N[C@@H](Cc1c[nH]cn1)C(=O)N[C@H](C(=O)N[C@@H](Cc1c[nH]cn1)C(=O)N[C@@H](CCCCN)C(=O)N[C@@H](CCC(=O)O)C(N)=O)[C@@H](C)O [L2, Ac-VAIALKAAHYHTHKE-NH2] (Ac-VAIALKAAHYHTHKE-NH2)
CFU decrease/increase with respect to untreated controls (C. albicans (ATCC 10231); [1]): +9.3% | mean CFU number ± S.D. (C. albicans (ATCC 10231); [1]): 153 ± 26 CFU | CFU decrease/increase with respect to untreated controls (C. albicans (ATCC 10231); [2]): +16% | mean CFU number ± S.D. (C. albicans (ATCC 10231); [2]): 1,908 ± 83 CFU | CFU decrease/increase with respect to untreated controls (C. albicans (ATCC 10231); [3]): -7.8% | mean CFU number ± S.D. (C. albicans (ATCC 10231); [3]): 129 ± 17 CFU | CFU decrease/increase with respect to untreated controls (C. albicans (ATCC 10231); [4]): +14% | mean CFU number ± S.D. (C. albicans (ATCC 10231); [4]): 1,873 ± 83 CFU | CFU decrease/increase with respect to untreated controls (C. albicans (ATCC 10231); [5]): +29% | mean CFU number ± S.D. (C. albicans (ATCC 10231); [5]): 180 ± 81 CFU | mean CFU number ± S.D. (C. albicans (ATCC 10231); [6]): 1,360 ± 140 CFU | CFU decrease/increase with respect to untreated controls (C. albicans (ATCC 10231); [7]): -44% | mean CFU number ± S.D. (C. albicans (ATCC 10231); [7]): 79 ± 18 CFU | mean CFU number ± S.D. (C. albicans (ATCC 10231); [8]): 881 ± 99 CFU | CFU decrease/increase with respect to untreated controls (C. albicans (ATCC 10231); [9]): -7% | mean CFU number ± S.D. (C. albicans (ATCC 10231); [9]): 130 ± 29 CFU | mean CFU number ± S.D. (C. albicans (ATCC 10231); [10]): 1,256 ± 129 CFU | mean CFU number ± S.D. (C. albicans (ATCC 10231); [11]): 36 ± 15 CFU | mean CFU number ± S.D. (C. albicans (ATCC 10231); [12]): 50 ± 29 CFU | CFU decrease/increase with respect to untreated controls (C. albicans (ATCC 10231); peptide alone 0.032 mg/mL, 3 h): +51% | mean CFU number ± S.D. (C. albicans (ATCC 10231); peptide alone 0.032 mg/mL, 3 h): 211 ± 25 CFU | CFU decrease/increase with respect to untreated controls (C. albicans (ATCC 10231); [13]): -5% | mean CFU number ± S.D. (C. albicans (ATCC 10231); [13]): 1,563 ± 72 CFU | CFU decrease/increase with respect to untreated controls (C. albicans (ATCC 10231); peptide alone 0.064 mg/mL, 3 h): +20% | mean CFU number ± S.D. (C. albicans (ATCC 10231); peptide alone 0.064 mg/mL, 3 h): 168 ± 14 CFU | CFU decrease/increase with respect to untreated controls (C. albicans (ATCC 10231); [14]): -10% | mean CFU number ± S.D. (C. albicans (ATCC 10231); [14]): 1,480 ± 198 CFU | CFU decrease/increase with respect to untreated controls (C. albicans (ATCC 10231); peptide alone 0.128 mg/mL, 3 h): +5.7% | mean CFU number ± S.D. (C. albicans (ATCC 10231); peptide alone 0.128 mg/mL, 3 h): 148 ± 24 CFU | CFU decrease/increase with respect to untreated controls (C. albicans (ATCC 10231); [15]): +6% | mean CFU number ± S.D. (C. albicans (ATCC 10231); [15]): 1,732 ± 249 CFU | mean CFU number ± S.D. (E. coli (ATCC 25922); [1]): 467 ± 19 CFU | CFU decrease/increase with respect to untreated controls (E. coli (ATCC 25922); [2]): -2.9% | mean CFU number ± S.D. (E. coli (ATCC 25922); [2]): 167 ± 37 CFU | mean CFU number ± S.D. (E. coli (ATCC 25922); [3]): 378 ± 8 CFU | CFU decrease/increase with respect to untreated controls (E. coli (ATCC 25922); [4]): -12.7% | mean CFU number ± S.D. (E. coli (ATCC 25922); [4]): 150 ± 4 CFU | mean CFU number ± S.D. (E. coli (ATCC 25922); [5]): 371 ± 54 CFU | CFU decrease/increase with respect to untreated controls (E. coli (ATCC 25922); [6]): -2.9% | mean CFU number ± S.D. (E. coli (ATCC 25922); [6]): 167 ± 12 CFU | mean CFU number ± S.D. (E. coli (ATCC 25922); [7]): 248 ± 88 CFU | CFU decrease/increase with respect to untreated controls (E. coli (ATCC 25922); [8]): -15.1% | mean CFU number ± S.D. (E. coli (ATCC 25922); [8]): 146 ± 6 CFU | mean CFU number ± S.D. (E. coli (ATCC 25922); [9]): 190 ± 15 CFU | CFU decrease/increase with respect to untreated controls (E. coli (ATCC 25922); [10]): -21% | mean CFU number ± S.D. (E. coli (ATCC 25922); [10]): 136 ± 25 CFU | mean CFU number ± S.D. (E. coli (ATCC 25922); [11]): 44 ± 4 CFU | CFU decrease/increase with respect to untreated controls (E. coli (ATCC 25922); [12]): -8.1% | mean CFU number ± S.D. (E. coli (ATCC 25922); [12]): 158 ± 18 CFU | CFU decrease/increase with respect to untreated controls (E. coli (ATCC 25922); peptide alone 0.032 mg/mL, 3 h): -1% | mean CFU number ± S.D. (E. coli (ATCC 25922); peptide alone 0.032 mg/mL, 3 h): 1,037 ± 161 CFU | CFU decrease/increase with respect to untreated controls (E. coli (ATCC 25922); [13]): +9% | mean CFU number ± S.D. (E. coli (ATCC 25922); [13]): 187 ± 11 CFU | CFU decrease/increase with respect to untreated controls (E. coli (ATCC 25922); peptide alone 0.064 mg/mL, 3 h): -2% | mean CFU number ± S.D. (E. coli (ATCC 25922); peptide alone 0.064 mg/mL, 3 h): 1031 ± 83 CFU | CFU decrease/increase with respect to untreated controls (E. coli (ATCC 25922); [14]): +8% | mean CFU number ± S.D. (E. coli (ATCC 25922); [14]): 186 ± 14 CFU | CFU decrease/increase with respect to untreated controls (E. coli (ATCC 25922); peptide alone 0.128 mg/mL, 3 h): -19% | mean CFU number ± S.D. (E. coli (ATCC 25922); peptide alone 0.128 mg/mL, 3 h): 845 ± 55 CFU | CFU decrease/increase with respect to untreated controls (E. coli (ATCC 25922); [15]): -3% | mean CFU number ± S.D. (E. coli (ATCC 25922); [15]): 166 ± 20 CFU

Reference: article PMC10600247, “Impact of C- and N-terminal protection on the stability, metal chelation and antimicrobial properties of calcitermin” (Scientific Reports, 2023)
